Patent publication US12016864B2, “LOX enzyme inhibiting methods and compositions” (ANOVIA BIOSCIENCES, INC., priority 2021, dated 2024)

Target: T1, Recombinant human LOXL2 (lysyl oxidase like 2) (Homo sapiens, UniProt Q9Y4K0)
T1 construct: purchased R&D systems
T1 sequence (Q9Y4K0 26-774): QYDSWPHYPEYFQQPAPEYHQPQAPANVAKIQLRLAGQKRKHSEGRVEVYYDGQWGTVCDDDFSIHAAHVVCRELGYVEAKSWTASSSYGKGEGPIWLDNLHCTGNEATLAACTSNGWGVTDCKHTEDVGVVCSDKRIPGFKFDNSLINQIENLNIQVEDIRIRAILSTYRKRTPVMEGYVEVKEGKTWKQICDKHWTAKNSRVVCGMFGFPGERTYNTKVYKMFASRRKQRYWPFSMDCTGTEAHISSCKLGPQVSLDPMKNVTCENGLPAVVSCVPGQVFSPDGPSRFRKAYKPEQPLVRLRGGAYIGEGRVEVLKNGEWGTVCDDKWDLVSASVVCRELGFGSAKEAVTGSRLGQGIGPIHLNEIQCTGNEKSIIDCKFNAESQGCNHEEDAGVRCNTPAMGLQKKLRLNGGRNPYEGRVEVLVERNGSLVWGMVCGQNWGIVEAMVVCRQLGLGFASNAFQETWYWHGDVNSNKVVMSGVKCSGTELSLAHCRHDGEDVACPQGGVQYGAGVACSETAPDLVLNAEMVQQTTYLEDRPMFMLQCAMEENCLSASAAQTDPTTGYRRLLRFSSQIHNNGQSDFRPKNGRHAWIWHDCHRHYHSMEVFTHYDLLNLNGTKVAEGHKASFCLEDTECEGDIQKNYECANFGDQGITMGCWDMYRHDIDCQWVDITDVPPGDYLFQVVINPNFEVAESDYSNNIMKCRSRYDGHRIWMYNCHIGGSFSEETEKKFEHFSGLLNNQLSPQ
Test: LOXL2 inhibition assay, fluorometric (cadaverine / HRP / Amplex Red)
Type: biochemical
Conditions: recombinant human LOXL2 130 nM; 30 min preincubation at 37° C.; 2.5 mM cadaverine; read-out: Activity Range LOXL2
Description: The ability of compounds to inhibit one or more of the lysyl oxidases LOXL2 and/or LOXL3 was determined using a fluorometric assay. This assay measures the activity of lysyl oxidases by coupling the reaction with horseradish peroxidase-catalyzed […]. The activity assay protocol uses cadaverine as substrate that releases hydrogen peroxide upon transformation by the specific LOX family enzyme present in the sample. Hydrogen peroxide is in turn detected using a red fluorescence substrate for HRP-coupled reactions (Amplex Red Enzyme Assays, Thermo Scientific Fisher). This leads to increase in fluorescence that can be easily detected at Ex/Em=540/590 nm in a fluorescence microplate reader.
Recombinant human LOXL2 (lysyl oxidase like 2) and recombinant human LOXL3 (lysyl oxidase like 3) were purchased from R&D systems and assays were performed in 1.2 M urea, 50 mM sodium borate buffer pH 8.0, and 10 mM CaCl.
5 μl of freshly prepared reaction buffer were delivered to reaction wells. Compounds were resuspended in 100% DMSO at 10 mM and delivered into buffer using acoustic technology (Echo550; nanoliter range). A 3× solution of LOXL2 or LOXL3 in reaction buffer was prepared (“enzyme solution”) and 5 μL of enzyme solution was added into the reaction wells. Buffer only was added to column 1 for no protein control. Reactions were incubated for 30 minutes at 37° C. A 3× mixture of cadaverine, Amplex Red, and HRP (“Substrate/Detection Mix) was prepared and subsequently 5 μL of the mixture added to each reaction well. Progress of reactions was monitored for 60 minutes at 37° C. using Clariostar plate reader (ex 530-12, ems 600-40). For all activity assays, pan-LOX inhibitor CCT365623 (Tang et al, 2017) and LOXL2/LOXL3 inhibitor PAT-1251 (PharmaKea) were included as standards.
For the data analysis, the slope of the linear portion of the progress curve was calculated using Clariostar software. Typical analysis interval was between 8-30 min, but varied between experiments. The background-subtracted signals (No protein wells are considered as background) were converted to % activity relative to DMSO controls. Data was analyzed using GraphPad Prism 4 with “sigmoidal dose-response (variable slope)”; 4 parameters with Hill Slope. Constraints: Bottom=Constant equal to 0. Top=Must be less than 120.

SMILES	IC50
NCc1ccnc(S(=O)(=O)C[C@@H]2C[C@H](c3ccccc3F)CN2S(=O)(=O)N2CCS(=O)(=O)CC2)c1 (racemic) [Example 205, cis-4-((2-(((4-(Aminomethyl)pyridin-2-yl)sulfonyl)methyl)-4-(2-fluorophenyl)pyrrolidin-1-yl)sulfonyl)thiomorpholine 1,1-dioxide 2,2,2-trifluoroacetate]	≤ 500 nM
NCc1ccc(S(=O)(=O)C[C@@H]2C[C@H](c3ccccc3F)CN2S(=O)(=O)N2CCS(=O)(=O)CC2)s1 (racemic) [Example 209, cis-4-((2-(((5-(Aminomethyl)thiophen-2-yl)sulfonyl)methyl)-4-(2-fluorophenyl)pyrrolidin-1-yl)sulfonyl)thiomorpholine 1,1-dioxide 2,2,2-trifluoroacetate]	≤ 500 nM
NCc1ccnc(OC[C@@H]2C[C@H](c3ccccc3F)CN2S(=O)(=O)N2CCOCC2)c1 (racemic) [Example 211, cis-(2-((4-(2-Fluorophenyl)-1-(morpholinosulfonyl)pyrrolidin-2-yl)methoxy)pyridin-4-yl)methanamine; trifluoroacetic acid]	≤ 500 nM
NCc1ccnc(OC[C@@H]2C[C@H](c3ccccc3F)CN2S(=O)(=O)N2CCS(=O)(=O)CC2)c1 (racemic) [Example 213, cis-4-((2-(((4-(Aminomethyl)pyridin-2-yl)oxy)methyl)-4-(2-fluorophenyl)pyrrolidin-1-yl)sulfonyl)thiomorpholine 1,1-dioxide 2,2,2-trifluoroacetate]	≤ 500 nM
NCc1cccc(OC[C@@H]2C[C@H](c3ccccc3F)CN2S(=O)(=O)N2CCOCC2)c1 (racemic) [Example 215, cis-(3-((4-(2-Fluorophenyl)-1-(morpholinosulfonyl)pyrrolidin-2-yl)methoxy)phenyl)methanamine]	500 to 1000 nM
NCc1cccc(OC[C@@H]2C[C@H](c3ccccc3F)CN2S(=O)(=O)N2CCS(=O)(=O)CC2)c1 (racemic) [Example 217, cis-4-((2-((3-(Aminomethyl)phenoxy)methyl)-4-(2-fluorophenyl)pyrrolidin-1-yl)sulfonyl)thiomorpholine 1,1-dioxide 2,2,2-trifluoroacetate]	500 to 1000 nM
NCc1ccnc(S(=O)(=O)C[C@@H]2C[C@H](c3ccccc3)CN(S(=O)(=O)N3CCOCC3)C2)c1 (racemic) [Example 219, cis-(2-(((1-(Morpholinosulfonyl)-5-phenylpiperidin-3-yl)methyl)sulfonyl)pyridin-4-yl)methanamine 2,2,2-trifluoroacetate]	≤ 500 nM
NCc1ccnc(S(=O)(=O)C[C@H]2C[C@H](c3ccccc3)CN(S(=O)(=O)N3CCOCC3)C2)c1 (racemic) [Example 219T, trans-(2-(((1-(Morpholinosulfonyl)-5-phenylpiperidin-3-yl)methyl)sulfonyl)pyridin-4-yl)methanamine 2,2,2-trifluoroacetate]	≤ 500 nM
NCc1ccnc(OC[C@@H]2C[C@H](c3ccccc3)CN(S(=O)(=O)N3CCOCC3)C2)c1 (racemic) [Example 220, cis-(2-((1-(Morpholinosulfonyl)-5-phenylpiperidin-3-yl)methoxy)pyridin-4-yl)methanamine 2,2,2-trifluoroacetate]	≤ 500 nM
NCc1cccc(OC[C@@H]2C[C@H](c3ccccc3)CN(S(=O)(=O)N3CCOCC3)C2)c1 (racemic) [Example 221, cis-(3-((1-(Morpholinosulfonyl)-5-phenylpiperidin-3-yl)methoxy)phenyl)methanamine 2,2,2-trifluoroacetate]	≤ 500 nM
NCc1ccc(S(=O)(=O)C[C@@H]2C[C@H](c3ccccc3)CN(S(=O)(=O)N3CCOCC3)C2)s1 (racemic) [Example 222, cis-(5-(((1-(Morpholinosulfonyl)-5-phenylpiperidin-3-yl)methyl)sulfonyl)thiophen-2-yl)methanamine 2,2,2-trifluoroacetate]	≤ 500 nM
CS(=O)(=O)N1C[C@@H](c2ccccc2)C[C@H]1CS(=O)(=O)c1ccc(CN)s1 (racemic) [Example 223, cis-(5-(((1-(Methylsulfonyl)-4-phenylpyrrolidin-2-yl)methyl)sulfonyl)thiophen-2-yl)methanamine 2,2,2-trifluoroacetate]	≤ 500 nM
CS(=O)(=O)N1C[C@@H](c2ccccc2)C[C@@H]1CS(=O)(=O)c1ccc(CN)s1 (racemic) [Example 223T, trans-(5-(((1-(Methylsulfonyl)-4-phenylpyrrolidin-2-yl)methyl)sulfonyl)thiophen-2-yl)methanamine 2,2,2-trifluoroacetate]	≤ 500 nM
NCc1ccnc(OC[C@H]2C[C@H](C3CCCCC3)CN(S(=O)(=O)N3CCS(=O)(=O)CC3)C2)c1 (racemic) [Example 235T, trans-4-((3-(((4-(Aminomethyl)pyridin-2-yl)oxy)methyl)-5-cyclohexylpiperidin-1-yl)sulfonyl)thiomorpholine 1,1-dioxide 2,2,2-trifluoroacetate]	≤ 500 nM
NCc1ccnc(OC[C@@H]2CC(C3CCCCC3)CN2S(=O)(=O)N2CCOCC2)c1 (mixture of isomers) [Example 239RAC, (2-(((2S)-4-Cyclohexyl-1-(morpholinosulfonyl)pyrrolidin-2-yl)methoxy)pyridin-4-yl)methanamine 2,2,2-trifluoroacetate]	≤ 500 nM
NCc1ccnc(OC[C@H]2C[C@H](c3ccccc3)CN(S(=O)(=O)N3CCOCC3)C2)c1 (relative stereo) [Example 220T, trans-(2-((1-(Morpholinosulfonyl)-5-phenylpiperidin-3-yl)methoxy)pyridin-4-yl)methanamine 2,2,2-trifluoroacetate]	500 to 1000 nM
NCc1cccc(OC[C@H]2C[C@H](c3ccccc3)CN(S(=O)(=O)N3CCOCC3)C2)c1 (relative stereo) [Example 221T, trans-(3-((1-(Morpholinosulfonyl)-5-phenylpiperidin-3-yl)methoxy)phenyl)methanamine 2,2,2-trifluoroacetate]	≤ 500 nM
NCc1ccc(S(=O)(=O)C[C@H]2C[C@H](c3ccccc3)CN(S(=O)(=O)N3CCOCC3)C2)s1 (relative stereo) [Example 222T, trans-(5-(((1-(Morpholinosulfonyl)-5-phenylpiperidin-3-yl)methyl)sulfonyl)thiophen-2-yl)methanamine 2,2,2-trifluoroacetate]	≤ 500 nM
NCc1ccnc(S(=O)(=O)C[C@@H]2C[C@H](C3CCCCC3)CN(S(=O)(=O)N3CCOCC3)C2)c1 (relative stereo) [Example 230, cis-(2-(((5-Cyclohexyl-1-(morpholinosulfony1)piperidin-3-yl)methyl)sulfonyl)pyridin-4-yl)methanamine 2,2,2-trifluoroacetate]	≤ 500 nM
NCc1ccnc(S(=O)(=O)C[C@H]2C[C@H](C3CCCCC3)CN(S(=O)(=O)N3CCOCC3)C2)c1 (relative stereo) [Example 230T, trans-(2-(((5-Cyclohexyl-1-(morpholinosulfonyl)piperidin-3-yl)methyl)sulfonyl)pyridin-4-yl)methanamine 2,2,2-trifluoroacetate]	≤ 500 nM
NCc1ccnc(OC[C@@H]2C[C@H](C3CCCCC3)CN(S(=O)(=O)N3CCOCC3)C2)c1 (relative stereo) [Example 231, cis-(2-((5-Cyclohexyl-1-(morpholinosulfonyl)piperidin-3-yl)methoxy)pyridin-4-yl)methanamine 2,2,2-trifluoroacetate]	≤ 500 nM
